Literature values as cited in patent US11085047B2, “Synthetic cannabinoid compounds for treatment of substance addiction and other disorders” (MyMD Pharmaceuticals (Florida), Inc., priority 2018, dated 2021).

Key:
[1] = several clinical studies
[2] = 2.5 to 5 mg; three patients

## CCCCCc1cc(O)c2c(c1)OC(C)(C)[C@@H]1CCC(C)=C[C@@H]21 [THC, tetrahydrocannabinol]
[1]
  mood in reactive depression: improvement of mood
[2]
  effect on pruritus due to liver diseases: effective
Inhalation of THC
  bronchoconstriction after inhalation: Very few patients developed bronchoconstriction
Oral THC (15 mg), acute studies
  anti-asthmatic effect: approximately correspond to those obtained with therapeutic doses of common bronchodilator drugs
